Broadly, the inhibition is how much of the control response was suppressed. What is called melting point is the temperature of the solid-liquid transition.

The record followed here is US20210101874A1, “MICROBIOCIDAL OXADIAZOLE DERIVATIVES” (SYNGENTA PARTICIPATIONS AG, priority 2017, published 2021).

Data set [1] has as its system Puccinia recondita f. sp. Tritici. Put plainly: Puccinia recondita f. sp. tritici / wheat / leaf disc preventative (brown rust). The conditions noted are these: foliar, 200 ppm in the applied formulation, wheat leaf segments cv. Kanzler, inoculated 1 day after application, compared to untreated, assessed 7 to 9 days after application, read-out: disease control. The class given is in vivo. In outline: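 Wheat leaf segments (cv. Kanzler) on water agar were sprayed with test compound (DMSO stock diluted in 0.025% Tween20/water), then spore-inoculated 1 day later. Incubation at 19° C., 75% rh, 12 h light/12 h dark; percent disease control versus untreated segments scored 7 to 9 days after application. Tested at 200 ppm.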

For data set [2] the test system is unchanged. Put plainly: Puccinia recondita f. sp. tritici / wheat / leaf disc curative (brown rust). The class given is in vivo. The conditions noted are these: foliar, 200 ppm in the applied formulation, wheat leaf segments cv. Kanzler, applied 1 day after inoculation, compared to untreated, assessed 6 to 8 days after application, read-out: disease control. In outline:
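Segments of wheat (cultivar Kanzler) sit on agar and are spore-inoculated first; after one day in darkness at 19° C and 75% RH the diluted formulated compound is sprayed on. A 12 h photoperiod follows at the same temperature and humidity before disease is scored against untreated controls.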

The test system of a further data set is Phakopsora pachyrhizi. As to the kind of experiment: Phakopsora pachyrhizi / soybean / leaf disc preventative (Asian soybean rust). Type of data set: in vivo. The conditions noted are these: foliar, 200 ppm in the applied formulation, soybean leaf disks, inoculated one day after application, compared to untreated, assessed 12 to 14 days after application, read-out: disease control. As to the method:
Leaf disks or leaf segments of various plant species are cut from plants grown in a greenhouse. The cut leaf disks or segments are placed in multiwell plates (24-well format) onto water agar. The leaf disks are sprayed with a test solution before (preventative) or after (curative) inoculation. Compounds to be tested are prepared as DMSO solutions (max. 10 mg/ml) which are diluted to the appropriate concentration with 0.025% Tween20 just before spraying. The inoculated leaf disks or segments are incubated under defined conditions (temperature, relative humidity, light, etc.) according to the respective test system. A single evaluation of disease level is carried out 3 to 14 days after inoculation, depending on the pathosystem. Percent disease control relative to the untreated check leaf disks or segments is then calculated.
Soybean leaf disks are placed on water agar in multiwell plates (24-well format) and sprayed with the formulated test compound diluted in water. One day after application leaf discs are inoculated by spraying a spore suspension on the lower leaf surface. After an incubation period in a climate cabinet of 24-36 hours in darkness at 20° C. and 75% rh leaf disc are kept at 20° C. with 12 h light/day and 75% rh. The activity of a compound is assessed as percent disease control compared to untreated when an appropriate level of disease damage appears in untreated check leaf disks (12 to 14 days after application).
The following compounds at 200 ppm in the applied formulation give at least 80% disease control in this test when compared to untreated control leaf disks under the same conditions, which show extensive disease development.

Data set [3] has as its system Glomerella lagenarium (Colletotrichum lagenarium). Put plainly: Glomerella lagenarium (Colletotrichum lagenarium) liquid culture / cucumber / preventative (anthracnose). Type of data set: cell-based. The conditions noted are these: Colletotrichum orbiculare; 20 ppm in the applied formulation; conidia in PDB nutrient broth, 24° C.; 3 to 4 days after application; compared to untreated; read-out: disease control (inhibition of growth measured photometrically). In outline:
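Test compound, diluted from DMSO, was mixed in microtiter wells with fungal conidia taken from cryogenic storage and suspended in PDB nutrient broth. After 3 to 4 days at 24 °C, photometric growth measurement gave antifungal activity as a percentage of the untreated control.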

Some results are limits rather than exact numbers.

With `CN(Cc1ccc(-c2noc(C(F)(F)F)n2)cc1)S(C)(=O)=O` [Compound 1.11, N-methyl-N-[[4-[5-(trifluoromethyl)-1,2,4-oxadiazol-3-yl]phenyl]methyl] methanesulfonamide], the melting point was in the range of 103 to 105 °C. In data set [1], the pest or weed control at 200 ppm is at least 80%. The pest or weed control at 200 ppm in data set [2] was at least 80%. For the same compound, in the data set on Phakopsora pachyrhizi, the pest or weed control at 200 ppm was at least 80%. The inhibition at 20 ppm in data set [3] is at least 80%.

`CN(C)S(=O)(=O)N(C)Cc1ccc(-c2noc(C(F)(F)F)n2)cc1` [Compound 1.12, N-(dimethylsulfamoyl)-N-methyl-1-[4-[5-(trifluoromethyl)-1,2,4-oxadiazol-3-yl]phenyl] methanamine] displayed a melting point of 77 to 79 °C. The pest or weed control at 200 ppm in data set [1] was at least 80%. Also, in data set [2], the pest or weed control at 200 ppm is at least 80%. Further, in the data set on Phakopsora pachyrhizi, the pest or weed control at 200 ppm was at least 80%. Besides, in data set [3], the inhibition at 20 ppm is at least 80%.

For the compound `CCS(=O)(=O)N(C)Cc1ccc(-c2noc(C(F)(F)F)n2)cc1` [Compound 1.13, N-methyl-N-[[4-[5-(trifluoromethyl)-1,2,4-oxadiazol-3-yl]phenyl]methyl] ethanesulfonamide], the melting point was in the range of 85 to 88 °C. Besides, the pest or weed control at 200 ppm in data set [1] was at least 80%. In addition, in data set [2], the pest or weed control at 200 ppm is at least 80%. In addition, the pest or weed control at 200 ppm in the data set with Phakopsora pachyrhizi was at least 80%. Also, the inhibition at 20 ppm in data set [3] was at least 80%.

In the case of `CN(Cc1ccc(-c2noc(C(F)(F)F)n2)cc1)S(=O)(=O)N1CCOCC1` [Compound 1.15, N-methyl-N-[[4-[5-(trifluoromethyl)-1,2,4-oxadiazol-3-yl]phenyl]methyl] morpholine-4-sulfonamide], the melting point was in the range of 118 to 120 °C. Further, the pest or weed control at 200 ppm in data set [1] is at least 80%. Besides, in data set [2], the pest or weed control at 200 ppm is at least 80%. Also, the pest or weed control at 200 ppm in the data set with Phakopsora pachyrhizi was at least 80%. Further, the inhibition at 20 ppm in data set [3] was at least 80%.

For the compound `CCNS(=O)(=O)N(C)Cc1ccc(-c2noc(C(F)(F)F)n2)cc1` [Compound 1.16, 3-[4-[[ethylsulfamoyl (methyl)amino]methyl]phenyl]-5-(trifluoromethyl)-1,2,4-oxadiazole], the melting point is 63 to 66 °C. Besides, the pest or weed control at 200 ppm in data set [1] is at least 80%. Moreover, the pest or weed control at 200 ppm in data set [2] was at least 80%. Further, in the data set on Phakopsora pachyrhizi, the pest or weed control at 200 ppm is at least 80%. In data set [3], the inhibition at 20 ppm is at least 80%.

With `CCNS(=O)(=O)N(Cc1ccc(-c2noc(C(F)(F)F)n2)cc1)C1CC1` [Compound 1.17, 3-[4-[[cyclopropyl (ethylsulfamoyl)amino]methyl]phenyl]-5-(trifluoromethyl)-1,2,4-oxadiazole], the melting point lay within 108 to 110 °C. Besides, the pest or weed control at 200 ppm in data set [1] was at least 80%. The pest or weed control at 200 ppm in data set [2] was at least 80%. Moreover, the pest or weed control at 200 ppm in the data set with Phakopsora pachyrhizi is at least 80%. The inhibition at 20 ppm in data set [3] was at least 80%.

In the case of `CCN(Cc1ccc(-c2noc(C(F)(F)F)n2)cc1F)S(C)(=O)=O` [Compound 1.103, N-ethyl-N-[[2-fluoro-4-[5-(trifluoromethyl)-1,2,4-oxadiazol-3-yl]phenyl]methyl] methanesulfonamide], the melting point lay in the range of 90 to 93 °C. Moreover, in data set [1], the pest or weed control at 200 ppm is at least 80%. Besides, the pest or weed control at 200 ppm in data set [2] was at least 80%. Also, the pest or weed control at 200 ppm with Phakopsora pachyrhizi was at least 80%. The inhibition at 20 ppm in data set [3] was at least 80%.

On to `CCN(Cc1ccc(-c2noc(C(F)(F)F)n2)c(F)c1F)S(C)(=O)=O` [Compound 1.104, N-[[2,3-difluoro-4-[5-(trifluoromethyl)-1,2,4-oxadiazol-3-yl]phenyl]methyl]-N-ethyl-methanesulfonamide], for which the melting point was in the range of 81 to 93 °C. Further, the pest or weed control at 200 ppm in data set [1] is at least 80%. Further, the pest or weed control at 200 ppm in data set [2] was at least 80%. The pest or weed control at 200 ppm with Phakopsora pachyrhizi is at least 80%. In data set [3], the inhibition at 20 ppm is at least 80%.

Compound `COCCS(=O)(=O)NCc1ccc(-c2noc(C(F)(F)F)n2)cc1` [Compound 2.1, 2-methoxy-N-[[4-[5-(trifluoromethyl)-1,2,4-oxadiazol-3-yl]phenyl]methyl] ethanesulfon-amide] came in with a melting point of 97 to 100 °C. Moreover, in data set [1], the pest or weed control at 200 ppm is at least 80%. The pest or weed control at 200 ppm in data set [2] was at least 80%. For the same compound, the pest or weed control at 200 ppm in the data set on Phakopsora pachyrhizi was at least 80%. In addition, the inhibition at 20 ppm in data set [3] was at least 80%.

For `CCS(=O)(=O)NCc1ccc(-c2noc(C(F)(F)F)n2)cc1` [Compound 2.2, N-[[4-[5-(trifluoromethyl)-1,2,4-oxadiazol-3-yl]phenyl]methyl] ethanesulfon-amide], the melting point lay within 127 to 129 °C. Besides, the pest or weed control at 200 ppm in data set [1] is at least 80%. The pest or weed control at 200 ppm in data set [2] is at least 80%. Besides, in the data set on Phakopsora pachyrhizi, the pest or weed control at 200 ppm was at least 80%. Besides, the inhibition at 20 ppm in data set [3] was at least 80%.

Take `CN(C)S(=O)(=O)NCc1ccc(-c2noc(C(F)(F)F)n2)cc1` [Compound 2.3, 3-[4-[(dimethyl-sulfamoylamino)methyl]phenyl]-5-(trifluoromethyl)-1,2,4-oxadiazole]: the melting point was in the range of 105 to 107 °C. Moreover, the pest or weed control at 200 ppm in data set [1] is at least 80%. Also, the pest or weed control at 200 ppm in data set [2] is at least 80%. Moreover, in the data set with Phakopsora pachyrhizi, the pest or weed control at 200 ppm is at least 80%. Also, the inhibition at 20 ppm in data set [3] was at least 80%.

The compound `O=S(=O)(NCc1ccc(-c2noc(C(F)(F)F)n2)cc1)C1CC1` [Compound 3.2, N-[[4-[5-(trifluoromethyl)-1,2,4-oxadiazol-3-yl]phenyl]methyl] cyclopropanesulfon-amide] gave a melting point of 130 to 134 °C. Besides, the pest or weed control at 200 ppm in data set [1] is at least 80%. Moreover, the pest or weed control at 200 ppm in data set [2] is at least 80%. Also, in the data set with Phakopsora pachyrhizi, the pest or weed control at 200 ppm was at least 80%. For the same compound, the inhibition at 20 ppm in data set [3] is at least 80%.

With `O=S(=O)(CC1CC1)NCc1ccc(-c2noc(C(F)(F)F)n2)cc1` [Compound 3.3, 1-cyclopropyl-N-[[4-[5-(trifluoromethyl)-1,2,4-oxadiazol-3-yl]phenyl]methyl] methanesulfonamide], the melting point fell in the range of 140 to 144 °C. Besides, the pest or weed control at 200 ppm in data set [1] is at least 80%. The pest or weed control at 200 ppm in data set [2] is at least 80%. For the same compound, the pest or weed control at 200 ppm with Phakopsora pachyrhizi is at least 80%. In data set [3], the inhibition at 20 ppm was at least 80%.

In the case of `O=S(=O)(CC1CCOC1)NCc1ccc(-c2noc(C(F)(F)F)n2)cc1` (stereo not shown) [Compound 3.4, 1-tetrahydrofuran-3-yl-N-[[4-[5-(trifluoromethyl)-1,2,4-oxadiazol-3-yl]phenyl]methyl] methanesulfonamide], the melting point is 117 to 122 °C. Moreover, the pest or weed control at 200 ppm in data set [1] is at least 80%. Further, the pest or weed control at 200 ppm in data set [2] is at least 80%. In addition, in the data set on Phakopsora pachyrhizi, the pest or weed control at 200 ppm is at least 80%. In data set [3], the inhibition at 20 ppm is at least 80%.
